Test results: patent publication US7148191B2, “Antigenic composition” (Intercell AG, priority 2000, dated 2006)

Experiments:
OVA-specific T cells = assay: IFN-γ ELISPOT of draining lymph node cells after injection of ovalbumin (OVA) mixtures; format: in vivo, mice (C57B1/6); details: Example 12, FIG. 12A; OVA 50 μg, oligo-dIC26-mer 5 nmol, pR 100 μg/mouse; footpad; day 4 LN
Protocol: Experimental Groups (4 Mice Per Group) • 1. OVA257-264-peptide+pIC+pR • 2. OVA257-264-peptide+pIC • 3. OVA257-264-peptide+pR On day 0 mice were injected into each hind footpad with a total volume of 100 μl (50 μl per footpad) containing the above mentioned compounds. Animals were sacrificed 4 days after injection and popliteal lymph nodes were harvested. Single cell suspensions were prepared by mincing lymph nodes through a 70 μm cell strainer. Thereafter, cells were washed twice with DMEM medium (Life Technologies) containing 5% fetal calf serum (FCS, SIGMA Chemicals). Cells were adjusted to 10^7 cells/ml in DMEM/5% FCS. […] This method is a widely used procedure for the quantification of antigen-specific T cells. […] Spots were counted using a Biosys reader (Biosys, Germany). […] The Results are expressed as the number of spots/1×10^6 unseparated cells±SD of triplicates. […]
Experimental Groups (4 Mice Per Group) • 1. […] Results are expressed as the number of spots/1×10^6 cells±SD of triplicates. […] Importantly, the IFN-γ production was detected not only upon the re-stimulation with the whole OVA protein but also with both, MHC class I (OVA257-264)- and II (OVA265-280)-restricted OVA-derived epitopes (FIG. 9).
Experimental Groups (8 Mice Per Group) • 1. […] Results are expressed as the number of spots/1×10^6 cells±SD of triplicates.

[1] = tested on: peptide-specific IFN-γ-producing T cells in peripheral blood; assay: IFN-γ ELISPOT of peripheral blood leukocytes after injection of ovalbumin (OVA) mixtures; format: in vivo, mice (C57B1/6); details: Example 12, FIG. 12B; PBLs re-stimulated with OVA257-264-peptide; selected time points after one single injection
Excerpt: To further examine whether the immune response induced by one single injection of OVA protein with oligo-dIC/pR is systemic, the rest of the mice (4 mice/group) was investigated at selected time points after injection for the presence of peptide-specific IFN-γ-producing T cells in peripheral blood using an IFN-γ ELISPOT assay. Results are expressed as the number of spots/1×10^6 cells±SD of duplicates.

[2] = tested on: OVA257-264-peptide-specific IFN-γ-producing T cells; assay: IFN-γ ELISPOT of draining lymph node cells after injection of OVA257-264-peptide mixtures; format: in vivo, mice (C57B1/6); details: Example 11; day 4; peptide 300 μg, oligo-dIC26-mer 5 nmol, pR 100 μg/mouse; footpad
Protocol: Experimental Groups (4 Mice Per Group) • 1. OVA257-264-peptide+pIC+pR • 2. OVA257-264-peptide+pIC • 3. OVA257-264-peptide+pR On day 0 mice were injected into each hind footpad with a total volume of 100 μl (50 μl per footpad) containing the above mentioned compounds. Animals were sacrificed 4 days after injection and popliteal lymph nodes were harvested. Single cell suspensions were prepared by mincing lymph nodes through a 70 μm cell strainer. Thereafter, cells were washed twice with DMEM medium (Life Technologies) containing 5% fetal calf serum (FCS, SIGMA Chemicals). Cells were adjusted to 10^7 cells/ml in DMEM/5% FCS. IFN-γ ELISPOT assays were carried out in triplicates as described (Miyahira et al., 1995). […] Spots were counted using a Biosys reader (Biosys, Germany). […] The Results are expressed as the number of spots/1×10^6 unseparated cells±SD of triplicates.

[3] = tested on: peptide-specific IFN-γ-producing T cells in spleen or peripheral blood; assay: IFN-γ ELISPOT of peripheral blood leukocytes or spleen cells (systemic response) after injection of OVA257-264-peptide mixtures; format: in vivo, mice (C57B1/6); details: Example 11, FIG. 11; selected time points after one single injection
Protocol: To investigate whether the immune response induced by one single injection of peptide with pIC/pR is systemic, the rest of the animals (four per group) was bled from the tail vein at selected time points after injection, peripheral blood leukocytes (PBLs) were isolated, re-stimulated either with the relevant peptide, pIC, pR, ConA (positive control) or medium alone (background) and the number of IFN-γ-secreting T lymphocytes was determined using an ELISPOT assay. Assays were carried out in duplicates. Each spot represents a single IFN-γ-producing T cell. Spots were counted using a Biosys reader (Biosys, Germany). Number of background spots was subtracted from all samples. Results are expressed as the number of spots/1×10^6 cells±SD of duplicates.
To examine whether the immune response induced by one single injection of peptide with oligo-dIC/pR is systemic, the rest of the mice (4 mice/group) was investigated at selected time points after injection for the presence of peptide-specific IFN-γ-producing T cells in spleen or peripheral blood using an IFN-γ ELISPOT assay. Results are expressed as the number of spots/1×10^6 cells±SD of duplicates.

[4] = tested on: human monocyte-derived DCs; assay: In vitro phenotypic maturation of DCs, surface molecules by flow cytometry; format: cell-based; details: 48 hours; for phenotypic maturation of DCs (overall): each 10 μg/ml, LPS 1 μg/ml as control
[5] = Example 10, FIG. 10, 10 μg/ml, day 6-cultured DCs, vs untreated DCs

“OVA: Ovalbumin from chicken egg, grade V, SIGMA Chemicals, A-5503” was tested, and the “local antigen-specific T cell response in lymph node cells” value (OVA-specific T cells) was “could not be observed” and the “systemic response (peptide-specific IFN-γ-producing T cells in peripheral blood)” value [1] was “could not be observed”.

For “OVA257–264-Peptide (SIINFEKL) [OVA257-264-peptide]”, the “local antigen-specific response in draining lymph node cells” value [2] was “could not be observed” and the “systemic response (peptide-specific IFN-γ-producing T cells in spleen or peripheral blood)” value [3] was “could not be observed”.

For Poly-L-arginine [pR], the “phenotypic maturation of DCs (overall)” value ([4]; Example 10, FIG. 10) was “None of the above described phenotypic changes could be observed”.

In the case of Polyinosinic-polycytidylic acid [pIC], the “expression of CD1a molecules” value [4, 5] is reported as “down-regulation”, the “expression of CD86 and the maturation marker CD83” value [4, 5] is reported as “de-novo expression” and the “expression of HLA-DR, -DQ and HLA-I molecules, CD40, CD54, CD80” value [4, 5] is reported as “up-regulation”. For the same substance, the “phenotypic maturation of DCs (overall)” value ([4]; Example 10, FIG. 10) was “comparable to that induced by LPS” and the “expression of CD11a, CD11c, CD13, CD25, CD29 and CD50 antigens” value ([4]; Example 10, 10 μg/ml, day 6-cultured DCs) was “slight up-regulation”.
